Test results taken from publication PMC9227013, “Synthesis, Anticancer Potential and Comprehensive Toxicity Studies of Novel Brominated Derivatives of Bacterial Biopigment Prodigiosin from Serratia marcescens ATCC 27117” (Molecules, 2022).
Values after ≈ are worked out from the molar mass of the structure shown.

Columns and labels:
[1] = system: zebrafish (Danio rerio) embryos; assay: Zebrafish (D. rerio) embryotoxicity; assay type: in vivo
Method: Wild-type zebrafish (Danio rerio) strain was obtained from the commercial supplier Pet Center, Belgrade, Serbia. Zebrafish embryotoxicity assay was performed according to general rules of the OECD Guidelines for the testing of chemicals. The wild-type zebrafish (D. rerio) strain was kept under controlled environmental conditions (water temperature 28 °C, 14 h under the light and 10 h in the dark) and fed regularly three times a day with commercially dry flake food supplemented with Artemia nauplii (TetraMinTM flakes; Tetra Melle, Germany). Zebrafish embryos were produced by female and male adults mating in the ratio of 1:2. Obtained embryos were collected and washed from detritus and carefully handled. Only fertilized embryos were selected and distributed into 24-well plates (Sarstedt, Germany) containing 10 embryos per well. Each well contained exactly 1 mL of water for embryos (0.2 g/L of Instant Ocean® Salt in distilled water). For assessing lethal and developmental toxicity, embryos at the 6 and 20 h postfertilization (hpf) stages were treated with selected compounds at concentrations of 0.1–100 μg/mL (maximum DMSO concentration in the negative control was 1%) and incubated at 28 °C. Experiments were performed in triplicate, using 30 embryos for each concentration. For five days, the appearance of different morphophysiological parameters in embryo development was monitored, and dead embryos were counted and discarded every 24 h. On the fifth day, the embryos were anesthetized by the addition of 0.1% (w/v) tricaine solution (Sigma-Aldrich, St. Louis, Missouri, US), observed under a stereomicroscope (SMZ-143-N2GG, Motic, Germany) at 3.5× magnification, photographed, and killed by freezing at −20 °C for ≥24 h. All experiments involving zebrafish were performed in compliance with the European directive 2010/63/EU and the ethical guidelines of the Guide for Care and Use of Laboratory Animals of the Institute of Molecular Genetics and Genetic Engineering, University of Belgrade, Serbia.

[2] = system: A375 (melanoma, skin cancer); assay: MTT antiproliferative assay on A375 cells; assay type: cell-based; details: Homo sapiens, A-375, 48 h
Method: (§1) Selected cell lines MRC-5 (lung fibroblasts), A549 (lung cancer), A375 (melanoma, skin cancer), MDA-MB-231 (breast cancer), and HCT116 (colon cancer) were obtained from ATCC, Manassas, US. Antiproliferative activities of PG and its Br derivatives were measured using the standard colorimetric MTT [3-(4,5-dimethylthiazol-2-yl)-2,5-diphenyltetrazolium bromide] assay. Briefly, cells were plated in a 96-well flat-bottom plate (Sarstedt, Nümbrecht, Germany) at a concentration of 1 × 10^4 cells per well, grown in a humidified atmosphere of 95% air and 5% CO2 at 37 °C, and maintained as monolayer cultures in RPMI 1640 medium supplemented with 10% fetal bovine serum (FBS), 100 U/mL penicillin, and 100 μg/mL streptomycin (all media components from Gibco™ by Thermo Fischer Scientific CE). Each tested compound was added to the cells at a concentration of 0.05–100.00 μg/mL, and the treatment lasted for 48 h. The MTT assay was performed two times in four replicates, and the results were presented as a percentage of the DMSO-treated control that was arbitrarily set to 100%. Plates were read using the Tecan Infinite 200 Pro multiplate reader (Tecan Group Ltd., Männendorf, Switzerland).

HCT116 (colon cancer) = assay: MTT antiproliferative assay on HCT116 cells; assay type: cell-based; details: for IC50: Homo sapiens
Method: as §1
(§2) To assess the effect of the treatment duration, exposure of MRC-5 and HCT116 cells to PG and its Br derivatives was observed after 24 h, 48 h, and 72 h and measured using the MTT assay, as described above. MRC-5 and HCT-116 cells treated for 24 h were additionally analyzed using DM IL LED Inverted Microscope (Leica Microsystems, Mannheim, Germany) at 20× magnification.

HCT116 colon cancer = system: HCT116 colon cancer; design: method as in PMID 24247721; details: HCT116, 72 h treatment; cited from earlier work
C. elegans = details: PG obtained from S. marcescens; cited from earlier work
[3] = system: Caenorhabditis elegans AU37; assay: Roundworm (C. elegans) survival assay; assay type: in vivo; details: 48 h
Method: Nematode roundworms (Caenorhabditis elegans AU37) were obtained from the Caenorhabditis Genetics Center (CGC), University of Minnesota, Minneapolis, Minnesota, US. C. elegans AU37 (glp-4; sek-1) was propagated under standard conditions, synchronized by hypochlorite bleaching, and cultured on nematode growth medium using E. coli OP50 as a food source, as described previously. The C. elegans survival assay was carried out following the standard procedure with some modifications. Briefly, synchronized worms (L4 stage) were suspended in a medium containing 95% M9 buffer (3.0 g of KH2PO4, 6.0 g of Na2HPO4, 5.0 g of NaCl, and 1 mL of 1 M MgSO4∙7H2O in 1 L of water), 5% LB broth, and 10 μg/mL of cholesterol (Sigma-Aldrich, Munich, Germany). The experiment was carried out in 96-well flat-bottomed microtiter plates (Sarstedt, Nümbrecht, Germany) in the final volume of 100 μL per well. 25 μL of this suspension of nematodes (25–35 nematodes) were transferred to the wells of a 96-well microtiter plate, where 50 μL of the medium was previously added. Next, 25 μL of the solvent control (1% DMSO) or 25 μL of the concentrated tested compound solution was added to the test wells. Final concentrations of the compounds were 50.00, 25.00, 12.50, 6.25, 3.13, and 1.57 µg/mL. Subsequently, the plates were incubated at 25 °C for 2 days. The fraction of dead worms was determined after 48 h by counting the number of dead worms and the total number of worms in each well, using a Carl Zeiss™ Stemi 508 Stereomicroscope (Zeiss Group, Jena, Germany) at 40× magnification. The compounds were tested three times in each assay and each assay was repeated two times (n = 6). As a negative control experiment, nematodes were exposed to the medium containing 1% DMSO.

A549 (lung cancer) = assay: MTT antiproliferative assay on A549 cells; assay type: cell-based; details: Homo sapiens, A549, 48 h
Method: as §1

[4] = system: HFF (human foreskin fibroblasts) cells; design: method as in PMID 24247721; details: cited from earlier work
[5] = system: MDA-MB-231 (breast cancer); assay: MTT antiproliferative assay on MDA-MB-231 cells; assay type: cell-based
Method: as §1

Heterodera schachtii J2 = details: cited from earlier work
MRC-5 cells = assay: Annexin V flow cytometry, early apoptosis; assay type: cell-based; details: MRC-5, compound at IC50 concentration, 24 h
Method: The eBioscience^TM Annexin V Apoptosis Detection Kit APC (Invitrogen by Thermo Fischer Scientific, Waltham, MA, USA) was used for the assessment of cellular integrity and the externalization of phosphatidylserine. MRC-5 cells were plated in a 6-well flat-bottom plate at a concentration of 2.5 × 10^5 cells per well, grown for 24 h in a humidified atmosphere of 95% air and 5% CO2 at 37 °C in RPMI 1640 medium supplemented with 10% fetal bovine serum (FBS), 100 U/mL penicillin, and 100 μg/mL streptomycin (Gibco™ by Thermo Fischer Scientific CE, Waltham, MA, USA). Each tested compound was added to the cells at IC50 concentration, and the incubation continued for another 24 h under the same conditions. Upon incubation, cells were collected, washed once with Dulbecco’s Phosphate-Buffered Saline (Gibco™ by Thermo Fischer Scientific CE, Waltham, MA, USA), and stained with Annexin V FITC and propidium iodide (PI) under the manufacturer’s instructions. Briefly, MRC-5 cells were resuspended in 1 × Binding Buffer at 1–5 × 10^6 cells per mL and incubated with 5.00 µL Annexin V FITC for 15 min at room temperature in a final volume of 100 μL. […] Immediately after staining, cells were analyzed using a CyFlow Space Partec flow cytometer, with Partec FloMax software (Partec GmbH, Münster, Germany).

[6] = system: A549, A375, MDA-MB-231, and HCT116 cancer cell lines; assay: MTT assay, whole cell line panel; assay type: cell-based; details: 48 h, read-out: IC50 values range over the tested cancer cell lines
Method: as §1

[7] = system: C. elegans first stage juveniles; details: cited from earlier work
[8] = system: juveniles of Radopholus similis; details: cited from earlier work
Breast cancer MDA-MB-231 = details: cited from earlier work
MRC-5 (lung fibroblasts) = assay: MTT antiproliferative assay on MRC-5 cells; assay type: cell-based; details: for IC50: Homo sapiens
Method: as §1, §2

[9] = system: juvenile Meloidogyne incognita J2; design: method as in doi:10.3390/agronomy12010041; details: cited from earlier work
melanoma cell line A375 = system: melanoma cell line A375; design: method as in PMID 16736886; details: cited from earlier work
A549 = details: cited from earlier work
[10] = system: 60-cell-line panel of the National Cancer Institute (NCI); details: NCI 60-cell-line panel; cited from earlier work
Meloidogyne javanica = details: cited from earlier work

CCCCCC1=CC(=Cc2[nH]c(-c3ccc[nH]3)cc2OC)N=C1C [PG, 4-Methoxy-5-[(5-methyl-4-pentyl-2H-pyrrol-2-ylidene)methyl]-1H,1'H-2,2'-bipyrrole]
death rate ([1]; 10 µg/mL applied at 6 hpf): 100%
effect on embryos ([1]; 2.5 and 0.1 µg/mL, both at 6 hpf and 20 hpf): all the embryos survived, but developed into slightly smaller fish with microcephaly
IC50 [2]: 1.25 ± 0.04 µg/mL (≈ 3.86 µM)
IC50 (HCT116 (colon cancer); HCT-116, 24 h): 5 ± 0.06 µg/mL (≈ 15.5 µM)
IC50 (HCT116 (colon cancer); HCT-116, 48 h): 0.7 ± 0.02 µg/mL (≈ 2.16 µM)
IC50 (HCT116 (colon cancer); HCT-116, 72 h): 0.8 ± 0.02 µg/mL (≈ 2.47 µM)
selectivity between healthy and cancer cell lines (HCT116 (colon cancer); MRC-5 vs colon cancer cells (HCT116), 48 h): 1.7
IC50 (HCT116 colon cancer): 0.04 µg/mL (≈ 0.124 µM)
toxicological assessment (C. elegans): no significant toxic activity
Survival rate ([3]; 1.57 µg/mL): 100 ± 0.00%
Survival rate ([3]; 3.13 µg/mL): 100 ± 0.00%
Survival rate ([3]; 6.25 µg/mL): 100 ± 0.00%
Survival rate ([3]; 12.50 µg/mL): 100 ± 0.00%
Survival rate ([3]; 25.00 µg/mL): 100 ± 0.00%
Survival rate ([3]; 50.00 µg/mL): 100 ± 0.00%
IC50 (A549 (lung cancer)): 1.3 ± 0.02 µg/mL (≈ 4.02 µM)
growth inhibition ([4]; 0.36 µg/mL PG): 76.16%
IC50 ([4]; 72 h of treatment): 0.15 µg/mL (≈ 0.464 µM)
IC50 ([5]; Homo sapiens, MDA-MB-231, 48 h): 0.62 ± 0.01 µg/mL (≈ 1.92 µM)
selectivity between healthy and cancer cell lines ([5]; MRC-5 vs breast cancer cells (MDA-MB-231), 48 h): 1.9
Effectiveness (Heterodera schachtii J2): 4.30 µg/mL
Annexin V Positive Cells (MRC-5 cells): 20.3 ± 0.5%
IC50 [6]: 0.62 to 1.3 µg/mL (≈ 1.92 to 4.02 µM)
EC50 [7]: 0.04 µg/mL (≈ 0.124 µM)
LC50 [8]: 83 µg/mL (≈ 257 µM)
sensitivity of MDA-MB-231 to PG (lower end of literature range) (Breast cancer MDA-MB-231): 0.02 µg/mL
sensitivity of MDA-MB-231 to PG (upper end of literature range) (Breast cancer MDA-MB-231): 0.68 µg/mL
IC50 (MRC-5 (lung fibroblasts); MRC5, 24 h): 1.8 ± 0.04 µg/mL (≈ 5.57 µM)
IC50 (MRC-5 (lung fibroblasts); MRC5, 48 h): 1.2 ± 0.04 µg/mL (≈ 3.71 µM)
IC50 (MRC-5 (lung fibroblasts); MRC5, 72 h): 0.7 ± 0.02 µg/mL (≈ 2.16 µM)
fold lower IC50 of 72 h in comparison to 24 h exposure (MRC-5 (lung fibroblasts); MRC-5): 2.5 fold
IC50 [9]: 200 µg/mL (≈ 618 µM)
sensitivity of A375 to PG (melanoma cell line A375): 0.70 µg/mL
anticancer activity against A549 (lower end of literature range) (A549): 0.03 µg/mL
anticancer activity against A549 (upper end of literature range) (A549): 3.23 µg/mL
average LC50 [10]: 0.68 µg/mL
LC50 (Meloidogyne javanica): 79 µg/mL (≈ 244 µM)
